Results on seven molecules are retold here after ChEMBL document CHEMBL5465560, “Selectivity Literature for EUbOPEN Chemogenomic Library” (2024).

The target of assay [1] is Serine/threonine-protein kinase Nek6 (Homo sapiens) (UniProt Q9HC98). The assay can be described thus: Selectivity interaction (Upstate Kinase Profiler service (Millipore)) EUB0000056c NEK6. To be noted: at 1 µM.
Assay [2] concerns the target T1, Activin receptor type-1B (Homo sapiens) (UniProt P36896).
T1 sequence (whole entry): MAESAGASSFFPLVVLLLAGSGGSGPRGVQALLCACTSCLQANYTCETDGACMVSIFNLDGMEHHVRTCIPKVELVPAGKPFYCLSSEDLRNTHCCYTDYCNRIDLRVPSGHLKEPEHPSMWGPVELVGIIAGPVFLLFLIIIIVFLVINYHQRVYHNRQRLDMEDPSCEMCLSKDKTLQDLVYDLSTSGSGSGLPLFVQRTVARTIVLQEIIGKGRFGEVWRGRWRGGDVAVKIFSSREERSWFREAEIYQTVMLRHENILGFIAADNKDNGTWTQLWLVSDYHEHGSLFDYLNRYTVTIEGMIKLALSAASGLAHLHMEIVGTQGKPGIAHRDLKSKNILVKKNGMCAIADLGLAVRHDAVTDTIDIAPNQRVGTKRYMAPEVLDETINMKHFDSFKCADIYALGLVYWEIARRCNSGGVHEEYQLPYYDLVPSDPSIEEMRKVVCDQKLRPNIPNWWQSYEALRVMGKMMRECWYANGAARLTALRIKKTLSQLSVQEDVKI
The assay can be described thus: Selectivity interaction (ProQinase) EUB0000171b ACVR1B.

In assay [3] the target is T2, Mitogen-activated protein kinase 12 (Homo sapiens) (UniProt P53778).
T2 sequence (whole entry): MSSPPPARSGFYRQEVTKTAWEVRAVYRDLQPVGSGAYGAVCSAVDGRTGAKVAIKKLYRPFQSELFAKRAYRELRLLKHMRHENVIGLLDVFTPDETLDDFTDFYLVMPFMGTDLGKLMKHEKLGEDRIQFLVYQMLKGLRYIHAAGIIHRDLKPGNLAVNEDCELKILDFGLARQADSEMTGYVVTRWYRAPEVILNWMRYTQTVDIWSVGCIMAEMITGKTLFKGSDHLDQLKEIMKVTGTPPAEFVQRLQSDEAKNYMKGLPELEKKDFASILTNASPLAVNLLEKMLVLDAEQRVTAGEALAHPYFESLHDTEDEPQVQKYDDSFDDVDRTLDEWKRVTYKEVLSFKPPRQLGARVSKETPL
Description: Selectivity interaction (KinomeScan (DiscoverX)) EUB0000092b MAPK12. The following applies: at 10 µM.

Assay [4] has as its target Calcium/calmodulin-dependent protein kinase type II subunit alpha (Homo sapiens, UniProt Q9UQM7). The assay can be described thus: Selectivity interaction (KinomeScan (DiscoverX)) EUB0000655a CAMK2A. The following applies: at 10 µM.
The target in assay [5] is T3, Interleukin-1 receptor-associated kinase 4 (Homo sapiens) (UniProt Q9NWZ3).
T3 sequence (whole entry): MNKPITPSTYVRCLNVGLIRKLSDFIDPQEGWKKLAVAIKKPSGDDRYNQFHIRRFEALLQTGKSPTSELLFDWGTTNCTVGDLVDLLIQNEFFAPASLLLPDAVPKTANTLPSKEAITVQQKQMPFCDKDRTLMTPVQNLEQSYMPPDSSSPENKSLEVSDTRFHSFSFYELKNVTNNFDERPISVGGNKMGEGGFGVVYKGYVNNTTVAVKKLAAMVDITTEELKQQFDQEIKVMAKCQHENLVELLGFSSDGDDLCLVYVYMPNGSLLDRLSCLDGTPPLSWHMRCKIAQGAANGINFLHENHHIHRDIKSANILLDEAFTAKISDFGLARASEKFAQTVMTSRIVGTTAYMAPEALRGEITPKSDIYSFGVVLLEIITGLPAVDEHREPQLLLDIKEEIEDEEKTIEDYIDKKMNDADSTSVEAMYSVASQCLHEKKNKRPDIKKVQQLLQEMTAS
The assay can be described thus: Selectivity interaction (KinomeScan (DiscoverX)) EUB0000655a IRAK4. The following applies: at 10 µM.

For assay [6], the target named is Serine/threonine-protein kinase 16 (Homo sapiens, UniProt O75716). Description: Selectivity interaction (KinomeScan (DiscoverX)) EUB0000655a STK16. To be noted: at 10 µM.
Chain of Serine/threonine-protein kinase 16 (O75716 whole entry): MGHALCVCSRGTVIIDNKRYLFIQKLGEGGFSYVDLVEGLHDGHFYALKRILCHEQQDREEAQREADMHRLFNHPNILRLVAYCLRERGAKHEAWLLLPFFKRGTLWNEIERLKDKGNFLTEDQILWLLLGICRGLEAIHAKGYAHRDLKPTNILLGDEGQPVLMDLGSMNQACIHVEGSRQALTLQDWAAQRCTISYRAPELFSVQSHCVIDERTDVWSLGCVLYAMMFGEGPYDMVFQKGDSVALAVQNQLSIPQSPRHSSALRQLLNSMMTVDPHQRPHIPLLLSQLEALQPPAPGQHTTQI
The target of assay [7] is T4, 5-hydroxytryptamine receptor 2C (Homo sapiens) (UniProt P28335).
T4 sequence (whole entry): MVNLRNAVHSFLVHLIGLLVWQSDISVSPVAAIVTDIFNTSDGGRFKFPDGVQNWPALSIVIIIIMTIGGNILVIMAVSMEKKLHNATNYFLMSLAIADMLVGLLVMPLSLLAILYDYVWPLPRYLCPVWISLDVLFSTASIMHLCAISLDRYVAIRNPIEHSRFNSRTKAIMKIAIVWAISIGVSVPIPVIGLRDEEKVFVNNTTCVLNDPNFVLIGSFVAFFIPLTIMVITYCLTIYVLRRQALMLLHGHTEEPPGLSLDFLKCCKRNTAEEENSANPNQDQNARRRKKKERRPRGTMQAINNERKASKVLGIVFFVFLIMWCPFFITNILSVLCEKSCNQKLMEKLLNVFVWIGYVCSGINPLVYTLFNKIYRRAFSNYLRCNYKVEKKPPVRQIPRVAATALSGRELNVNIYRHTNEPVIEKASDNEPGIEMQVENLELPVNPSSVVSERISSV
Description: Selectivity interaction (Panel of kinases, GPCRs, ion channels and transporters (enzymatic assay)) EUB0000223bCl HTR2C.

A further assay addresses Insulin receptor (Homo sapiens, UniProt P06213). Description: Selectivity interaction (KinomeScan (DiscoverX)) EUB0000607a INSR. To be noted: at 10 µM.
For assay [8], the system named is Phosphatidylinositol 4,5-bisphosphate 3-kinase catalytic subunit alpha isoform (Homo sapiens), P42336 [E545A]. The following applies: at 10 µM.
Chain of Phosphatidylinositol 4,5-bisphosphate 3-kinase catalytic subunit alpha isoform (Homo sapiens), P42336 [E545A] (P42336 whole entry E545A, canonical isoform): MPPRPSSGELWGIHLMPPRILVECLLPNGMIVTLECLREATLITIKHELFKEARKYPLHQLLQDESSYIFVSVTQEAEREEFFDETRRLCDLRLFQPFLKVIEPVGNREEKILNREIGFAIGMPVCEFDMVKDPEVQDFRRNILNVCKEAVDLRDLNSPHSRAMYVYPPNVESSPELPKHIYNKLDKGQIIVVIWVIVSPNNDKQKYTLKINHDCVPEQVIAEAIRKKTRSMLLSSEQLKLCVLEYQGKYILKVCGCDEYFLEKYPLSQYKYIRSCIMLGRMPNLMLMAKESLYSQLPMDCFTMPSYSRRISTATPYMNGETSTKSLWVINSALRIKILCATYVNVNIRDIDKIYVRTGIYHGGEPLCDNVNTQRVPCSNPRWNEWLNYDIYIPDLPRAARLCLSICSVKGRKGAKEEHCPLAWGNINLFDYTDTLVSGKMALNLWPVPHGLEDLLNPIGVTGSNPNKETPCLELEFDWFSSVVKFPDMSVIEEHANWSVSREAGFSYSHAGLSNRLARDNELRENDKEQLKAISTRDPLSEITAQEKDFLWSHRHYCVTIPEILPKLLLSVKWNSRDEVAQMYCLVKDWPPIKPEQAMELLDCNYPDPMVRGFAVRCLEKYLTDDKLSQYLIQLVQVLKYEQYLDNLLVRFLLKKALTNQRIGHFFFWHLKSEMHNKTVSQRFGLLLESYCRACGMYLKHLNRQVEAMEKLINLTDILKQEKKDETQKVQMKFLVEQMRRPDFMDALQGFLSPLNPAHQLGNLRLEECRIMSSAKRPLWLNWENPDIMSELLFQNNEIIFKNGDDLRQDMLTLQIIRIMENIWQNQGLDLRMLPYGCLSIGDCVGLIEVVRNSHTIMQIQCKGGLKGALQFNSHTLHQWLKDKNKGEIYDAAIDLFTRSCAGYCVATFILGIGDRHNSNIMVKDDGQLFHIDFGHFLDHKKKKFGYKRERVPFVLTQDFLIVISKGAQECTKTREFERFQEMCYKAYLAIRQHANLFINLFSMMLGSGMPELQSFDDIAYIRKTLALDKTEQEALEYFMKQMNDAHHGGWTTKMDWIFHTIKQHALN
The target of assay [9] is DNA-dependent protein kinase catalytic subunit (Homo sapiens) (UniProt P78527). Description: Selectivity interaction (ActivX KiNativ screen (kinase selectivity in THP-1 cell lysates)) EUB0000639a PRKDC. Type of assay: subcellular. To be noted: lysate, at 0.01 µM.

Chain of Calcium/calmodulin-dependent protein kinase type II subunit alpha (Q9UQM7 whole entry): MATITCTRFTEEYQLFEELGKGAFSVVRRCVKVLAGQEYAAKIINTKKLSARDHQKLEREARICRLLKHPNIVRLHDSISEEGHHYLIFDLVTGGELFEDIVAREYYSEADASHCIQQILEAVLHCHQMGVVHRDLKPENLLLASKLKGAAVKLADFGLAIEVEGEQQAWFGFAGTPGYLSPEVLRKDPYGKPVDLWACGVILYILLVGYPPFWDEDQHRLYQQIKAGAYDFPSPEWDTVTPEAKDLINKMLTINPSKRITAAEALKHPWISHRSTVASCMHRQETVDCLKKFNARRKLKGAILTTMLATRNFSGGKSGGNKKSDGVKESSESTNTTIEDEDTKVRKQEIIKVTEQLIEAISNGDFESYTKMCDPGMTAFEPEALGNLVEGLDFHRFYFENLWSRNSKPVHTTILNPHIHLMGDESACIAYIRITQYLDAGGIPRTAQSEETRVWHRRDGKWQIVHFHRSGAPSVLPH
Chain of Insulin receptor (P06213 28-758 limits assumed): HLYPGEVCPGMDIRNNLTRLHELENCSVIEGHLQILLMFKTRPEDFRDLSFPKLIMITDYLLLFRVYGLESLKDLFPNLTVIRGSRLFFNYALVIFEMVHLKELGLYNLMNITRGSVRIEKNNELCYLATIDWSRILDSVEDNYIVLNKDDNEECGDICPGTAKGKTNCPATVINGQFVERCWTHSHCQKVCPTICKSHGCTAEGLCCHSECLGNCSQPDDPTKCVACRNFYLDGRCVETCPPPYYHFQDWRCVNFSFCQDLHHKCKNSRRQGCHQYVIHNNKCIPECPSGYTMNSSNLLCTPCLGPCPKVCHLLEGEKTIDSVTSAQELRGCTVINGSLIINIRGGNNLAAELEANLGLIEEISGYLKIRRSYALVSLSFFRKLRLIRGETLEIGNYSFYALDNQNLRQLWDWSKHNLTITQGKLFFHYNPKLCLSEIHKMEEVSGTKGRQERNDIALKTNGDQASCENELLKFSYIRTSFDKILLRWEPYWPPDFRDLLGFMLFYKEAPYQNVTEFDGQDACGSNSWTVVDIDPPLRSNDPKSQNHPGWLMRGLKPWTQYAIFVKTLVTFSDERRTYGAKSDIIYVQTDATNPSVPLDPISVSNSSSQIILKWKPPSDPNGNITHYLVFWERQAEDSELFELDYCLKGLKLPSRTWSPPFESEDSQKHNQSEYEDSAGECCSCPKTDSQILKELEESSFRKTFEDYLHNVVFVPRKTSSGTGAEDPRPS
Chain of Insulin receptor (P06213 763-1382 limits assumed): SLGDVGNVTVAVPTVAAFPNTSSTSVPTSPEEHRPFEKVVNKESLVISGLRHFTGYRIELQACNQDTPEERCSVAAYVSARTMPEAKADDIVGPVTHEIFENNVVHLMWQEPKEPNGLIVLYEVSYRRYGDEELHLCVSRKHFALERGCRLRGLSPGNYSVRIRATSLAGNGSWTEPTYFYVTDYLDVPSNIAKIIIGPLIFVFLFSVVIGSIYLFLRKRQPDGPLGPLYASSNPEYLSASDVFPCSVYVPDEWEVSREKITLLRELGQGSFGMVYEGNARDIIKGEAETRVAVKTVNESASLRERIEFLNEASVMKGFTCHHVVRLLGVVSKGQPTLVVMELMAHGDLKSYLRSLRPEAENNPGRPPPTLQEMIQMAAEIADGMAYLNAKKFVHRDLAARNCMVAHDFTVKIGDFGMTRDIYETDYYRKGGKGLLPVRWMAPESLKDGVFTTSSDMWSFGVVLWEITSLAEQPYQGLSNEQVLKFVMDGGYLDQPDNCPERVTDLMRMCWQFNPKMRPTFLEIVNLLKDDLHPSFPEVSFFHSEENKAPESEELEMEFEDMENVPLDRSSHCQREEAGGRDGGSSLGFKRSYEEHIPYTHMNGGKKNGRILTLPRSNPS
Chain of Serine/threonine-protein kinase Nek6 (Homo sapiens) (Q9HC98 whole entry): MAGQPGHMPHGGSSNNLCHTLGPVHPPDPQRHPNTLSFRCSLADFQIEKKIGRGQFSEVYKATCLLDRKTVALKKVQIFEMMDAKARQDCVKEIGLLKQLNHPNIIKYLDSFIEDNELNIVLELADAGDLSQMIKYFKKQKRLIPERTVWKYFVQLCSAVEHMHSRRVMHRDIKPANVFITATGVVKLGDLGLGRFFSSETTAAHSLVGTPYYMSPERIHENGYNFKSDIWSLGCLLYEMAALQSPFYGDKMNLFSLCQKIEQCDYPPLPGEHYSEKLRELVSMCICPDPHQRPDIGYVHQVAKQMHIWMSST

`Cc1ccc(-c2ccc3c(ccc4sc5c(c43)NC[C@@H](C)NC5=O)n2)cn1`: the % of inhibition in [1] was -6%.

Consider `C=CC(=O)Nc1cccc(C(=O)Nc2ccc(Nc3cc(-c4[nH]c(SC)nc4C)ccn3)cc2)c1`, for which the % of control in [2] (at 1 µM) and in assay [2] (at 5 µM) was 94% in each case. `CCC(=O)N1CCN(c2ccc(-n3c(=O)ccc4cnc5ccc(-c6cnc7ccccc7c6)cc5c43)cc2C(F)(F)F)CC1` displayed a % of control in assay [3] of 71%.

Consider `CN(C)CCOc1ccc(-c2nc(-c3ccncc3)c(-c3ccc4c(c3)CC/C4=N\O)[nH]2)cc1`, for which the % of control in assay [4] worked out at 88%; in assay [5], 91%; in assay [6] it was 94%. As for `COc1cc(C(=O)N2CC[C@@H](O)[C@@H](N)C2)cc2nc(-c3cc4ccccc4n3CC3CC3)n(C)c12`, in assay [7], the pXC50 was below 4.4 M. Regarding `CNC(=O)Nc1ccc(-c2nc(N3CC4CCC(C3)O4)c3cnn(C4CCC5(CC4)OCCO5)c3n2)cc1`, the % of control at Insulin receptor came out at 84%; in [8], 8.8%. With `CC[C@@H]1[C@H](F)C(=O)N[C@@H]1COc1nccc2cc(C(N)=O)c(OC)cc12` [ZIMLOVISERTIB], the % of inhibition in [9] is -2.2%.
